Where “and” joins values, the source holds several entries; their conditions need not be identical. Equal values may be shown once.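 Exposure lasted 48 hours, with cells grown in 96-well plates and compounds tested at five concentrations. Abbreviation: GI50, concentration required for 50% inhibition of growth. TGI: total growth inhibition.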

Among the test systems are A498 renal; CAKI-1 renal; CCRF-CEM leukemia; HCC-2998 colon; HL-60(TB) leukemia; HT29 colon; K-562 leukemia; NCI-H226 lung; NCI-H460 lung; SK-MEL-28 melanoma.
Assay in all cases: DTP human tumour cell line panel, 48 h

In the case of `OCCN1CCCN(CCCN2c3ccccc3Sc3ccc(C(F)(F)F)cc32)CC1`, the GI50 (usually the concentration that inhibits growth by half) in the assay with A498 renal was 1.69 µM; in the assay on CAKI-1 renal, 2.3 µM; in the assay on CCRF-CEM leukemia it was 2.42 µM; with HCC-2998 colon, 1.81 µM; in the assay on HL-60(TB) leukemia it was 1.91 µM; with HT29 colon, 1.76 µM. Further, the GI50 is 1.57 µM in the assay with K-562 leukemia, 15.1 µM in the assay on NCI-H226 lung, 1.95 µM with NCI-H460 lung and 1.64 µM in the assay on SK-MEL-28 melanoma. The total growth inhibition concentration (TGI) (in general, the concentration at which net growth stops) in the assay with A498 renal was 5.63 µM; with CAKI-1 renal it was 6.26 µM; in the assay with CCRF-CEM leukemia, 5.76 µM; with HCC-2998 colon, 3.33 µM; in the assay with HL-60(TB) leukemia, 3.74 µM; in the assay with HT29 colon, 3.75 µM. In addition, the concentration for total growth inhibition (TGI) in the assay on K-562 leukemia was 3.23 µM; in the assay on NCI-H226 lung, 39.1 µM; in the assay with NCI-H460 lung, 3.77 µM; in the assay on SK-MEL-28 melanoma, 3.03 µM.
With `COc1cc2c(c(OC)c1OC)-c1ccc(SC)c(=O)cc1C(CC(=O)Oc1ccccc1F)C2` (stereo unspecified), the concentration for total growth inhibition (TGI) with A498 renal was 6.77 µM; in the assay with CAKI-1 renal it was above 7.5 µM; in the assay on CCRF-CEM leukemia, above 7.5 µM; in the assay with HCC-2998 colon it was 0.373 µM; in the assay on HL-60(TB) leukemia, 1.37 µM; with HT29 colon it was 0.0324 µM. Further, the total growth inhibition concentration (TGI) with K-562 leukemia was above 7.5 µM; in the assay on NCI-H226 lung, 0.444 µM; in the assay on NCI-H460 lung, above 7.5 µM; in the assay on SK-MEL-28 melanoma it was above 7.5 µM.
Take `O=c1ccc(=O)c2c1c1[nH]c3ccccc3c1c1c(=O)c3ccccc3c(=O)c21`: the concentration for total growth inhibition (TGI) in the assay with A498 renal is above 10 µM; in the assay on CAKI-1 renal it was above 10 µM; with CCRF-CEM leukemia, above 10 µM; in the assay on HCC-2998 colon, above 10 µM; in the assay with HL-60(TB) leukemia it was 9.85 µM; with HT29 colon, above 10 µM. Further, the total growth inhibition concentration (TGI) in the assay on K-562 leukemia, with NCI-H226 lung, in the assay with NCI-H460 lung and in the assay with SK-MEL-28 melanoma was above 10 µM in each case.
Consider `CC(=O)O[C@H]1C(=O)[C@@]2(C)C([C@H](OC(=O)c3ccccc3)[C@]3(O)C[C@H](OC(=O)[C@H](O)[C@@H](NC(=O)c4ccc(Cl)cc4)c4ccccc4)C(C)=C1C3(C)C)C1(OC(C)=O)CO[C@@H]1C[C@@H]2O` (stereo partly specified), for which the GI50 with A498 renal was 11.1 µM; in the assay on CAKI-1 renal, 0.0269 µM. The total growth inhibition concentration (TGI) is 25 µM and > 100 µM in the assay with A498 renal; 25 µM and 32.3 µM in the assay on CAKI-1 renal; 52.2 µM in the assay with CCRF-CEM leukemia; 0.608 µM in the assay on HCC-2998 colon; 0.00466 µM in the assay on HL-60(TB) leukemia; 10.4 µM with HT29 colon. Besides, the TGI is > 25 µM and 12.5 µM in the assay with K-562 leukemia; 25 µM in the assay with NCI-H226 lung; 25 µM and > 100 µM in the assay with NCI-H460 lung; 25 µM in the assay with SK-MEL-28 melanoma.
Regarding `COc1ccc(C2=NOC3=c4ccccc4=CSC3=C2c2ccccc2)cc1`, the TGI with A498 renal, in the assay with CAKI-1 renal, in the assay with CCRF-CEM leukemia, in the assay with HCC-2998 colon, in the assay on HL-60(TB) leukemia and in the assay on HT29 colon was above 100 µM throughout. Moreover, the TGI in the assay on K-562 leukemia is above 100 µM; in the assay on NCI-H226 lung it was 79.8 µM; in the assay on NCI-H460 lung, 89 µM; in the assay with SK-MEL-28 melanoma it was above 100 µM. Further, the GI50 in the assay on CAKI-1 renal was 64.7 µM; in the assay on CCRF-CEM leukemia, 21.7 µM; with HCC-2998 colon, above 100 µM; in the assay with HL-60(TB) leukemia, 39.7 µM; in the assay with HT29 colon, 37.1 µM; in the assay with K-562 leukemia, 51.2 µM. Also, the GI50 was 20.2 µM with NCI-H226 lung, 21.5 µM in the assay with NCI-H460 lung and 37.7 µM in the assay with SK-MEL-28 melanoma.
As for `Clc1cc(Cl)cc(Nc2ccc3c(OCCCN4CCOCC4)cccc3n2)c1`, the GI50 in the assay on A498 renal was 2.39 µM; with CAKI-1 renal, 7.59 µM; with CCRF-CEM leukemia, 2.36 µM; with HCC-2998 colon, 1.82 µM; in the assay with HL-60(TB) leukemia, 2.11 µM; in the assay with HT29 colon, 1.76 µM. For the same molecule, the GI50 in the assay with K-562 leukemia is 2.21 µM; in the assay on NCI-H226 lung, 3.17 µM; in the assay with NCI-H460 lung, 2.42 µM; in the assay with SK-MEL-28 melanoma, 1.65 µM. The TGI with A498 renal amounted to 12.1 µM; with CAKI-1 renal, 22.9 µM; with CCRF-CEM leukemia, 6.36 µM; in the assay with HCC-2998 colon, 3.51 µM; with HL-60(TB) leukemia it was 6.34 µM; with HT29 colon it was 3.39 µM. The TGI turned out to be 5.71 µM in the assay with K-562 leukemia, 10.7 µM in the assay with NCI-H226 lung, 5.86 µM in the assay on NCI-H460 lung and 3.3 µM with SK-MEL-28 melanoma.
For `O=[N+]([O-])/C(=C/C=C/c1ccccc1)c1ccccc1`, the GI50 with A498 renal was 3.78 µM; in the assay with CAKI-1 renal, 0.805 µM; with CCRF-CEM leukemia it was 0.764 µM; in the assay with HCC-2998 colon, 1.92 µM; in the assay with HL-60(TB) leukemia, 1.09 µM; in the assay on HT29 colon it was 3.23 µM. For the same molecule, the GI50 in the assay with K-562 leukemia is 1.7 µM; in the assay on NCI-H226 lung it was 6.07 µM; with NCI-H460 lung it was 3.3 µM; in the assay on SK-MEL-28 melanoma, 2.09 µM. The concentration for total growth inhibition (TGI) in the assay with A498 renal was 9.66 µM; with CAKI-1 renal, 3.06 µM; with CCRF-CEM leukemia it was 2.39 µM; in the assay with HCC-2998 colon, 4.14 µM; in the assay on HL-60(TB) leukemia, 3.55 µM; with HT29 colon, 7.18 µM. Besides, the total growth inhibition concentration (TGI) in the assay with K-562 leukemia came out at 5 µM; with NCI-H226 lung, 12.4 µM; in the assay on NCI-H460 lung, 11.3 µM; with SK-MEL-28 melanoma, 4.23 µM.
Turning to `Cc1ncc([N+](=O)[O-])n1CCOc1ccc(C(=O)/C=C/c2ccc(C(F)(F)F)cc2)cc1`, the GI50 was 6.57 µM in the assay with A498 renal; 2 µM with CAKI-1 renal; 2.02 µM with CCRF-CEM leukemia; 5.85 µM with HCC-2998 colon; 2.91 µM with HL-60(TB) leukemia; 1.99 µM with HT29 colon. For the same molecule, the GI50 in the assay on K-562 leukemia was 1.53 µM; with NCI-H226 lung, 4.25 µM; in the assay with NCI-H460 lung, 4.09 µM; in the assay with SK-MEL-28 melanoma, 10.2 µM. Besides, the TGI in the assay with A498 renal was found to be 20.2 µM; in the assay with CAKI-1 renal, 5.25 µM; in the assay with CCRF-CEM leukemia, 6 µM; with HCC-2998 colon it was 18.3 µM; in the assay on HL-60(TB) leukemia, 11.4 µM; in the assay with HT29 colon it was 4.23 µM. The TGI in the assay with K-562 leukemia turned out to be 3.83 µM; with NCI-H226 lung it was 20.4 µM; with NCI-H460 lung it was 15 µM; in the assay on SK-MEL-28 melanoma, 21.9 µM.

For the origin of these results see PubChem BioAssay (NCI).
